Results taken from US12780800B1, “Triazole-pyridinyl substituted azacyclohexyl acetic acid compounds as LPA receptor antagonists” (Viva Star Biosciences Limited, priority 2021, dated 2022).

Target: T1, LPA1 (Homo sapiens, UniProt Q92633)
T1 construct: ProLink (PK) beta-galactosidase enzyme-fragment tag; host or cells: CHO-K1
Experiment: LPA1 calcium flux assay (LPA1 functional antagonist assay)
Assay type: cell-based
Conditions: PathHunter CHO-K1 EDG2 β-Arrestin cell line; calcium indicator dye; stimulated with EC80 concentration of LPA; FLIPR Tetra
Protocol: Following overnight culture, cells were loaded with calcium indicator dye from the HitHunter Calcium No WashPLUS Assay kit (Eurofins DiscoverX Corporation, Cat #93-0091) for 45 minutes at 37° C. […] After compound addition, assay plates were equilibrated to room temperature for 30 minutes. […] IC50 values were determined by Chemical and Biological Information System from ChemInnovation Software, Inc. The compounds of this invention were tested for their activity to inhibit LPA1 as determined in an LPA1 functional antagonist assay as described herein.

T1 sequence (Q92633 whole entry, the tested form may be a part): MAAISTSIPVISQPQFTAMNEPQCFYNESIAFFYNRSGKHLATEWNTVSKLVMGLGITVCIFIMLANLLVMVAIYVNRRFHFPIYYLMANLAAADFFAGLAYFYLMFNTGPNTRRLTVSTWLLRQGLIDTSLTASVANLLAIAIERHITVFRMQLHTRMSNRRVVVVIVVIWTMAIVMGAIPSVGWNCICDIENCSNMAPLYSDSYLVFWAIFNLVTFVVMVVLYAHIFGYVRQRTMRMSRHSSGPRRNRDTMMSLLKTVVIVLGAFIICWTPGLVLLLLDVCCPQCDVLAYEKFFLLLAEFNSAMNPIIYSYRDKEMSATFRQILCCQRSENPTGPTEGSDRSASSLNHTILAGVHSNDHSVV

| SMILES | IC50 |
| --- | --- |
| CCCc1ccc(=O)n(Cc2c(-c3ccc(N4C[C@@H](F)C[C@H](CC(=O)O)C4)c(CC)n3)nnn2C)c1 (single isomer, unassigned) [Example 45, 2-((3S,5S) or (3R,5R)-1-(2-ethyl-6-(1-methyl-5-((2-oxo-5-propylpyridin-1(2H)-yl)methyl)-1H-1,2,3-triazol-4-yl)pyridin-3-yl)-5-fluoropiperidin-3-yl)acetic acid] | 100 to 500 nM |
| CCCc1ccc(=O)n(Cc2c(-c3ccc(N4C[C@H](F)C[C@@H](CC(=O)O)C4)c(CC)n3)nnn2C)c1 (single isomer, unassigned) [Example 46, 2-((3R,5R) or (33,5S)-1-(2-ethyl-6-(1-methyl-5-((2-oxo-5-propylpyridin-1(2H)-yl)methyl)-1H-1,2,3-triazol-4-yl)pyridin-3-yl)-5-fluoropiperidin-3-yl)acetic acid] | > 5000 nM |
| CCCc1ccc(=O)n(Cc2c(-c3ccc(N4CCCC(CC(=O)O)C4=O)c(CC)n3)nnn2C)c1 (single isomer, unassigned) [Example 52, (R) or (S)-2-(1-(2-ethyl-6-(1-methyl-5-((2-oxo-5-propylpyridin-1(2H)-yl)methyl)-1H-1,2,3-triazol-4-yl)pyridin-3-yl)-2-oxopiperidin-3-yl)acetic acid] | 500 to 5000 nM |
| CCCc1ccc(=O)n(Cc2c(-c3ccc(N4CCCC(CC(=O)O)C4=O)c(CC)n3)nnn2C)c1 (single isomer, unassigned) [Example 53, (S) or (R)-2-(1-(2-ethyl-6-(1-methyl-5-((2-oxo-5-propylpyridin-1(2H)-yl)methyl)-1H-1,2,3-triazol-4-yl)pyridin-3-yl)-2-oxopiperidin-3-yl)acetic acid] | > 5000 nM |
| CCCc1ccc(=O)n(Cc2c(-c3ccc(N4CC(CC(=O)O)CCC4=O)c(CC)n3)nnn2C)c1 (single isomer, unassigned) [Example 54, (R) or (S)-2-(1-(2-ethyl-6-(1-methyl-5-((2-oxo-5-propylpyridin-1(2H)-yl)methyl)-1H-1,2,3-triazol-4-yl)pyridin-3-yl)-6-oxopiperidin-3-yl)acetic acid] | > 5000 nM |
| CCCc1ccc(=O)n(Cc2c(-c3ccc(N4CC(CC(=O)O)CCC4=O)c(CC)n3)nnn2C)c1 (single isomer, unassigned) [Example 55, (S) or (R)-2-(1-(2-ethyl-6-(1-methyl-5-((2-oxo-5-propylpyridin-1(2H)-yl)methyl)-1H-1,2,3-triazol-4-yl)pyridin-3-yl)-6-oxopiperidin-3-yl)acetic acid] | > 5000 nM |
| CCc1nc(-c2nnn(C)c2COc2nccc(C3CCC3)n2)ccc1N1CCCC(CC(=O)O)C1=O (single isomer, unassigned) [Example 94, (S) or (R)-2-(1-(6-(5-(((4-cyclobutylpyrimidin-2-yl)oxy)methyl)-1-methyl-1H-1,2,3-triazol-4-yl)-2-ethylpyridin-3-yl)-2-oxopiperidin-3-yl)acetic acid] | 500 to 5000 nM |
| Cc1nc(-c2nnn(C)c2COc2nccc(C3CCC3)n2)ccc1CN1CC(C(=O)O)CC(F)(F)C1 (single isomer, unassigned) [Example 148, (R) or (S)-1-((6-(5-(((4-cyclobutylpyrimidin-2-yl)oxy)methyl)-1-methyl-1H-1,2,3-triazol-4-yl)-2-methylpyridin-3-yl)methyl)-5,5-difluoropiperidine-3-carboxylic acid] | < 100 nM |
| CCCc1ccc(=O)n(Cc2c(-c3ccc(CN4CC(C(=O)O)CC(F)(F)C4)c(CC)n3)nnn2C)c1 (single isomer, unassigned) [Example 149, (S) or (R)-1-((2-ethyl-6-(1-methyl-5-((2-oxo-5-propylpyridin-1(2H)-yl)methyl)-1H-1,2,3-triazol-4-yl)pyridin-3-yl)methyl)-5,5-difluoropiperidine-3-carboxylic acid] | 100 to 500 nM |
| CCc1nc(-c2nnn(C)c2Cn2cc(CC(C)C)ccc2=O)ccc1CN1CC(C(=O)O)CC(F)(F)C1 (single isomer, unassigned) [Example 155, (R) or (S)-1-((2-ethyl-6-(5-((5-isobutyl-2-oxopyridin-1(2H)-yl)methyl)-1-methyl-1H-1,2,3-triazol-4-yl)pyridin-3-yl)methyl)-5,5-difluoropiperidine-3-carboxylic acid] | 500 to 5000 nM |
| CCCc1ccc(=O)n(Cc2c(-c3ccc(CN4CC(C(=O)O)CC(F)(F)C4)c(C)n3)nnn2C)c1 (single isomer, unassigned) [Example 157, (R) or (S)-5,5-difluoro-1-((2-methyl-6-(1-methyl-5-((2-oxo-5-propylpyridin-1(2H)-yl)methyl)-1H-1,2,3-triazol-4-yl)pyridin-3-yl)methyl)piperidine-3-carboxylic acid] | 500 to 5000 nM |
| CCCc1cnn(Cc2c(-c3ccc(CN4CC(C(=O)O)CC(F)(F)C4)c(C)n3)nnn2C)c(=O)c1 (single isomer, unassigned) [Example 158, (S) or (R)-5,5-difluoro-1-((2-methyl-6-(1-methyl-5-((6-oxo-4-propylpyridazin-1(6H)-yl)methyl)-1H-1,2,3-triazol-4-yl)pyridin-3-yl)methyl)piperidine-3-carboxylic acid] | > 5000 nM |
| CCCc1ccc(=O)n(Cc2c(-c3ncc(CN4CC(C(=O)O)CC(F)(F)C4)c(CC)n3)cnn2C)c1 (single isomer, unassigned) [Example 160, (S) or (R)-1-((4-ethyl-2-(1-methyl-5-((2-oxo-5-propylpyridin-1(2H)-yl)methyl)-1H-pyrazol-4-yl)pyrimidin-5-yl)methyl)-5,5-difluoropiperidine-3-carboxylic acid] | 500 to 5000 nM |

Results, then the compound that gave them:

| IC50 | SMILES |
| --- | --- |
| > 5000 nM | CCc1nc(-c2nnn(C)c2COc2nccc(C3CCC3)n2)ccc1N1CC(CC(=O)O)CCC1=O (single isomer, unassigned) [Example 91, (R) or (S)-2-(1-(6-(5-(((4-cyclobutylpyrimidin-2-yl)oxy)methyl)-1-methyl-1H-1,2,3-triazol-4-yl)-2-ethylpyridin-3-yl)-6-oxopiperidin-3-yl)acetic acid] |
| > 5000 nM | CCc1nc(-c2nnn(C)c2COc2nccc(C3CCC3)n2)ccc1N1CC(CC(=O)O)CCC1=O (single isomer, unassigned) [Example 92, (S) or (R)-2-(1-(6-(5-(((4-cyclobutylpyrimidin-2-yl)oxy)methyl)-1-methyl-1H-1,2,3-triazol-4-yl)-2-ethylpyridin-3-yl)-6-oxopiperidin-3-yl)acetic acid] |
| 100 to 500 nM | CCc1nc(-c2nnn(C)c2COc2nccc(C3CCC3)n2)ccc1N1CCCC(CC(=O)O)C1=O (single isomer, unassigned) [Example 93, (R) or (S)-2-(1-(6-(5-(((4-cyclobutylpyrimidin-2-yl)oxy)methyl)-1-methyl-1H-1,2,3-triazol-4-yl)-2-ethylpyridin-3-yl)-2-oxopiperidin-3-yl)acetic acid] |
| < 100 nM | Cc1nc(-c2nnn(C)c2COc2nccc(C3CCC3)n2)ccc1CN1CC(C(=O)O)CC(F)(F)C1 (single isomer, unassigned) [Example 147, (S) or (R)-1-((6-(5-(((4-cyclobutylpyrimidin-2-yl)oxy)methyl)-1-methyl-1H-1,2,3-triazol-4-yl)-2-methylpyridin-3-yl)methyl)-5,5-difluoropiperidine-3-carboxylic acid] |
| 100 to 500 nM | CCCc1ccc(=O)n(Cc2c(-c3ccc(CN4CC(C(=O)O)CC(F)(F)C4)c(CC)n3)nnn2C)c1 (single isomer, unassigned) [Example 150, (R) or (S)-1-((2-ethyl-6-(1-methyl-5-((2-oxo-5-propylpyridin-1(2H)-yl)methyl)-1H-1,2,3-triazol-4-yl)pyridin-3-yl)methyl)-5,5-difluoropiperidine-3-carboxylic acid] |
| < 100 nM | CCc1nc(-c2nnn(C)c2COc2nccc(C3CCC3)n2)ccc1CN1CC(C(=O)O)CC(F)(F)C1 (single isomer, unassigned) [Example 152, (S) or (R)-1-((6-(5-(((4-cyclobutylpyrimidin-2-yl)oxy)methyl)-1-methyl-1H-1,2,3-triazol-4-yl)-2-ethylpyridin-3-yl)methyl)-5,5-difluoropiperidine-3-carboxylic acid] |
| 500 to 5000 nM | CCc1nc(-c2nnn(C)c2COc2nccc(C3CCC3)n2)ccc1CN1CC(C(=O)O)CC(F)(F)C1 (single isomer, unassigned) [Example 153, (R) or (S)-1-((6-(5-(((4-cyclobutylpyrimidin-2-yl)oxy)methyl)-1-methyl-1H-1,2,3-triazol-4-yl)-2-ethylpyridin-3-yl)methyl)-5,5-difluoropiperidine-3-carboxylic acid] |
| 100 to 500 nM | CCc1nc(-c2nnn(C)c2Cn2cc(CC(C)C)ccc2=O)ccc1CN1CC(C(=O)O)CC(F)(F)C1 (single isomer, unassigned) [Example 154, (S) or (R)-1-((2-ethyl-6-(5-((5-isobutyl-2-oxopyridin-1(2H)-yl)methyl)-1-methyl-1H-1,2,3-triazol-4-yl)pyridin-3-yl)methyl)-5,5-difluoropiperidine-3-carboxylic acid] |
| 100 to 500 nM | CCCc1ccc(=O)n(Cc2c(-c3ccc(CN4CC(C(=O)O)CC(F)(F)C4)c(C)n3)nnn2C)c1 (single isomer, unassigned) [Example 156, (S) or (R)-5,5-difluoro-1-((2-methyl-6-(1-methyl-5-((2-oxo-5-propylpyridin-1(2H)-yl)methyl)-1H-1,2,3-triazol-4-yl)pyridin-3-yl)methyl)piperidine-3-carboxylic acid] |
| > 5000 nM | CCCc1cnn(Cc2c(-c3ccc(CN4CC(C(=O)O)CC(F)(F)C4)c(C)n3)nnn2C)c(=O)c1 (single isomer, unassigned) [Example 159, (R) or (S)-5,5-difluoro-1-((2-methyl-6-(1-methyl-5-((6-oxo-4-propylpyridazin-1(6H)-yl)methyl)-1H-1,2,3-triazol-4-yl)pyridin-3-yl)methyl)piperidine-3-carboxylic acid] |
